Non-standard residues stand in square brackets, D forms with d. Residues, ends and D or L forms follow the SMILES beside them.
How the values were obtained:
[1] = Proton transport in vesicles with pH gradient; settings: vesicles pH 6.5 inside, pH 5.5 outside
Description: Formation of supramolecular structures that can permeabilize membranes was also inferred from proton transport activity. Vesicles were prepared having pH 6.5 inside and pH 5.5 in the outside bulk solution. The collapse of the imposed pH gradient in these vesicles, upon formation of the putative transmembrane channel structure, was studied by monitoring the fluorescence intensity of an entrapped pH-sensitive dye. (V. E. Carmichael et al, in J.Am. Chem. Soc. (1989), vol. 111, pages 767-769). Addition of peptide cyclo[-(Trp-D-Leu)3-Gln-D-Leu-]
Unilamellar vesicles were prepared by the reverse-phase evaporation using DPPC, OPPC, cholesterol in the ratio of 1:1:2 in a solution containing 5(6)-carboxyfluorescein (20 mM in phosphate/saline buffer: 137 mM NaCl, 2.6 mM KCI, 6.4 mM Na2HPO4, 1.4 mM KH2PO4, pH 6.5) according to the method of F. Szoka et al. in Proc. Natl. Acad. Sci. USA (1978), vol. 75, pages 4194-4198. Liposomes were then sized by multiple extrusions through Nucleopore® polycarbonate membranes (10 times, 50 psi, using 0.8 and 2×0.4 micron filter stacks) and the untrapped 5(6)-carboxyfluorescein was removed by size exclusion chromatography (Sephadex G-25 column 1×30 cm) using the same phosphate/saline buffer according to the method of F. Olson et al. in Biochim. […] Vesicles formed in this way are approximately 150 nanometer in diameter as determined by electron microscopy. […] In each experiment, […] of the stock vesicle solution (3.5×10^−3 M in phospholipids) was added to pH 5.5 buffer (1.3 ml, 137 mM NaCl, 2.6 mM KCl, 6.4 Na2HPO4, 1.4 KH2PO4) and placed in a 1 cm quartz cuvette inside a stirring thermojacketed sample holder of the fluorescence instrument and equilibrated at 25° C. for 15 minutes with gentle stirring. To the cuvette, through an injector port, […] of the peptide dissolved in DMSO was added with continuous fluorescence monitoring at 520 nm (excitation at 470 nm). The observed data were then normalized for comparison into the fractional change in fluorescence ((I0-It)/(I0-I∞)) (V. E. Carmichael et al, in J.Am. Chem. Soc. (1989), vol. 111, pages 767-769)).

[2] = system: vancomycin-resistant Enterococus faecalis (VRE)(ATCC 51575); assay type: cell-based, Enterococcus faecalis; parameters: key to VRE (in vitro activity): peptide concentration in μg/ml (broth dilution assay); settings: for VRE (in vitro activity): Table 9, media a: AM-3
Outline: (§1)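 MICs come from NCCLS-style (M7-A4) dilution testing, mostly microdilution, with an inoculum near 2.5×10^5 cfu/ml from 4000-fold-diluted overnight cultures. Peptide series were 2-fold steps spanning roughly 400–2 μg/ml, prepared in 9% aqueous sucrose with 5% DMSO.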

[3] = trypsin, α-chymotrypsin, subtilisin, blood plasma; RP-HPLC over 24 h
Description: Cyclic peptides having SEQ ID NO:13, 18, 26, and 29 were assayed for proteolytic susceptibility.

[4] = system: Streptococcus pneumoniae (ATCC 6301); assay type: cell-based
Outline: as §1

[5] = system: Bacillus cereus ATCC 11778; assay type: cell-based
Outline: as §1

[6] = system: S. aureus (MRSA) ATCC 33591; assay type: cell-based, Staphylococcus aureus; settings: for MRSA (in vitro activity): Table 9, media a: anti-microbial media-3 (AM-3)
Outline: as §1

[7] = system: S. aureus MRSA (ATCC 33591); test: Mouse peritonitis model, MRSA protection; assay type: in vivo, mice; parameters: PD50 MRSA: unit not given here
Description: Bacteria were prepared for in vivo using procedures similar to those as previously described. […] S. aureus MRSA bacteria (ATCC 33591) were grown at 37° C. in 5 mL of Antibiotic Medium-3 (AM-3, Difco Laboratories) with agitation for 12 hours to a stationary phase. Cells were collected by centrifugation, washed twice with saline solution and resuspended in about 10 mL of saline to an O.D.650 of 1.2. This suspension was diluted ten times in a sterilized 5% mucin (Difco) in saline to a concentration of 2-4×10^7 cfu/ml (actual inoculum size was verified by colony counts on agar plates).
Peptides of the invention were tested in mice to ascertain whether they would protect the mice against bacterial infection using procedures similar to those described in N. Frimodt-Moller et al., The Mouse Peritonitis/Sepsis Model, in Zak et al. (eds.) HANDBOOK OF ANIMAL MODELS OF INFECTION 127-37 (Academic Press 1999).
Male Balb-C mice (6 weeks old, approximately 20 g) were used in the study. Staphylococcus aureus MRSA bacteria (ATCC 33591) were grown at 37° C. with agitation for 12 hours to a stationary phase. Cells were collected by centrifugation, washed twice with saline and resuspended to an O.D.650 of 1.4. This suspension was diluted ten times with saline and resuspended to a concentration of 3-5×10^7 cfu/ml. For each peptide five groups of eight mice per group were infected I.P. with 0.5 ml of the above Staphylococcus aureus MRSA preparation (lethal dose). Forty-five minutes to an hour after infection, each group was treated with a different dose of peptide and a control group received vehicle only. Mice were monitored for fourteen days; death was defined as the end point. Median protecting doses (PD50) were calculated following the Reed and Muench method. […] For IV and SQ models peptide was administered immediately after IP infection.

E. coli JM109(DE3) = assay type: cell-based, Escherichia coli; settings: JM109
Outline: as §1

murine red blood cells = test: Red blood cell hemolysis; assay type: cell-based, mouse
Outline: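 Hemolysis read as A560 of supernatant, scaled between saline (0%) and 1% Triton X-100 (100%) controls; peptides were serially diluted onto 5% murine red cells in saline plus 10% FBS and incubated 30 min at 37° C.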

Toxicity studies in mice = assay type: in vivo; parameters: LD50(IP) / LD50(IV): unit not given here
Description: Peptides were tested for toxicity in vivo using procedures similar to those described previously. […] Mice (male Balb-C) in groups of 4-8 were given via IV, IP or SQ single bolucdoses of peptides and monitored for 14 days. Toxicity of sublethal doses was assessed based on the behavior and appearance of the mice after peptide administration compared to control mice receiving only vehicle. Signs of acute toxicity included lack of activity, red feet and tail, faster breathing. Death was defined as the end point for lethal doses of peptides.
Toxicology Studies: Initial toxicology studies in mice were conducted to evaluate various routes of drug administration, maximum tolerable dose, and blood and tissue toxicity. Two mice in each dose study were injected with a bolus intravenous (IV), intraperitoneal (IP), or subcutaneous (SQ) doses of peptide SEQ ID NO:8, 18, and 26. For each study, two control animals received vehicle only and no peptide. […] Signs of acute toxicity included any one of the following: lack of activity, red feet and tail, or faster breathing. […] A regimen of […] of peptide SEQ ID NO:18 for three consecutive days was administered to two mice IP and two mice SQ.

[8] = system: S. aureus (MRSA) (ATCC No. 33591); test: Time-killing curve, S. aureus MRSA ATCC 33591; assay type: cell-based, Staphylococcus aureus; settings: FIG. 8a; at MIC concentrations
Description: (§2) The speed at which several of the cyclic peptides of the invention kill E. coli JM 109 (DE3), Enterococcus faecium SP 180 and S. aureus (MRSA) (ATCC No. 33591 and 33592) was further tested at room temperature and/or at 37° C. A lower temperature tends to enrich the bacterial cultures for mature bacteria because the bacteria are not growing quickly. […] The presence or absence of immature bacteria in the culture may influence the rate at which the bacteria are killed, because immature bacteria tend to be more susceptible to many forms of antibiotics.
To generate the data shown in FIG. 8a, the log of the number of colony forming units (cfu) per ml of culture was determined as a function of time after treatment of S. aureus (MRSA) (ATCC No. 33591) with cyclo[KHLWLW] (closed circles), cyclo[KRKWLWLW] (closed triangles), and cyclo[KQRWLWLW] (open squares) at MIC concentrations. […] The reduction in cfu count was greater than 3 log units. Cyclic peptide cyclo[KHLWLW] killed effectively all S. aureus (MRSA) within about 60 minutes.

E. coli JM109 (DE3) = test: Time-killing curve, E. coli; assay type: cell-based, Escherichia coli; settings: FIG. 8b; at MIC concentrations
Description: as §2
In FIG. 8b, the log of the number of E. coli colony forming units (cfu) per ml of culture is plotted versus time treated with cyclo[KRKWLWLW] (closed triangles), cyclo[KQRWLWLW] (closed circles), cyclo[KHLWLW] (closed squares), and cyclo[KKWLW] (open squares) at MIC concentrations. […] Cyclic peptide cyclo[KHKLWLW] kills effectively all E. coli within about 90 minutes. Cyclic peptides cyclo[KRKWLWLW] and cyclo[KKWLW] kill effectively all of the E. coli within about 130 minutes. […] Nonetheless, these cyclic peptides kill both types of bacteria very quickly.

Compound | proton / ion transport activity [1] | VRE MIC ([2]; ATCC 51575) | VRE (in vitro activity) [2] | S. pneum. MIC [4] | B. cerius MIC [5] | MRSA MIC ([6]; ATCC 33591) | S. aureus (MRSA) MIC ([6]; ATCC 33591) | MRSA (in vitro activity) [6] | E. coli MIC (E. coli JM109(DE3)) | RBC Hemolysis (HD50) (murine red blood cells) | time to kill effectively all S. aureus (MRSA) [8] | further results
cyclo[-(^MeN-D-Ala-Phe)4-] | does not promote proton transport activity |  |  |  |  |  |  |  |  |  |  | 
CC(C)C[C@H]1NC(=O)[C@H](CCCCN)NC(=O)[C@@H](CCCCN)NC(=O)[C@H](Cc2c[nH]c3ccccc23)NC(=O)[C@@H](CC(C)C)NC(=O)[C@H](Cc2c[nH]c3ccccc23)NC1=O [SEQ ID NO:26, cyclo-(D-Lys-Lys-D-Leu-Trp-D-Leu-Trp)] (cyclo(K[dL]W[dL]W[dK])) |  | 40 µg/mL | 40 | 30 µg/mL | > 10 µg/mL | 10 µg/mL | 10 µg/mL | 10 | 17 µg/mL | 80 |  | In Vitro VREF MIC ([2]; ATCC 51575): 40 µg/mL; proteolytic stability [3]: stable; In Vitro MRSA MIC ([6]; ATCC 33591): 10 µg/mL; PD50 S. aureus MRSA infection [7]: 15 mg/kg; PD50 protective dose where 50% of animals survive ([7]; FIG. 6, mice challenged with lethal doses of MRSA): 10 ± 2 mg/kg; PD50 MRSA ([7]; Table 12, male Balb-C mice, IP infection, IP peptide): 15; In Vivo MRSA PD50 ([7]; Table 13): 15 mg/kg; protection of mice from MRSA infection ([7]; single bolus IP dose of appropriate amount, 45-60 min after infection): completely protect; In Vitro RBC MIC (murine red blood cells): 80 µg/mL; LD50(IP) (Toxicity studies in mice; Table 12, male Balb-C mice): 75; LD50(IV) (Toxicity studies in mice; Table 12, male Balb-C mice): 24; LD50 at 14 days (Toxicity studies in mice; male, Balb-C, mouse, in vivo, ip, Table 13): 75 mg/kg; signs at highest dose (Toxicity studies in mice; mice, IP 50 mg/kg): signs of acute toxicity that were not observable after one hour; tolerability (Toxicity studies in mice; mice, IP, maximum tested dose 50 mg/kg): tolerated up to the maximum tested IP dose
cyclo[-(Trp-D-Leu)3-Gln-D-Leu-] [SEQ ID NO:2] | rapid collapse of the pH gradient |  |  |  |  |  |  |  |  |  |  | 
CC(C)C[C@H]1NC(=O)[C@H](Cc2c[nH]c3ccccc23)NC(=O)[C@@H](CCCCN)NC(=O)[C@H](CCCNC(=N)N)NC(=O)[C@@H](CCCCN)NC(=O)[C@H](Cc2c[nH]c3ccccc23)NC(=O)[C@@H](CC(C)C)NC(=O)[C@H](Cc2c[nH]c3ccccc23)NC1=O [SEQ ID NO:19, D-Lys-Arg-D-Lys-Trp-D-Leu-Trp-D-Leu-Trp] (cyclo([dK]R[dK]W[dL]W[dL]W)) |  | 8 µg/mL | 8 | 5 µg/mL | 3 µg/mL | 15 µg/mL | 10 µg/mL | 15 |  | 50 | within about five minutes | 
cyclo[-(Gln-D-Leu)4] | does not display any ion transport activity |  |  |  |  |  |  |  |  |  |  | 
CC(C)C[C@H]1NC(=O)[C@H](Cc2c[nH]cn2)NC(=O)[C@@H](CCCCN)NC(=O)[C@H](Cc2c[nH]c3ccccc23)NC(=O)[C@@H](CC(C)C)NC(=O)[C@H](Cc2c[nH]c3ccccc23)NC1=O [SEQ ID NO:27, cyclo-(D-Lys-His-D-Leu-Trp-D-Leu-Trp)] (cyclo(H[dL]W[dL]W[dK])) |  | 40 µg/mL | 40 | 5 µg/mL | 5 µg/mL | 10 µg/mL | 10 µg/mL | 10 | 100 µg/mL | 25 | ≤ 60 min | time to kill effectively all E. coli (E. coli JM109 (DE3)): ≤ 90 min

Reference: patent publication US20050107289A1, “Anti-microbial peptides and compositions” (priority 2001, published 2005)
